Measurements reported in paper PMC4802219, “Improved dialytic removal of protein-bound uraemic toxins with use of albumin binding competitors: an in vitro human whole blood study” (Scientific Reports, 2016).

Columns and labels:
[1] = target: T1, albumin (Homo sapiens, UniProt P02768); test: Static RED assay of IS displacement by ibuprofen with or without furosemide in normal human plasma; assay type: binding; details: normal human plasma spiked with IS 150 μmol/l, ibuprofen 0 to 931 μmol/l, furosemide 0.18 mmol/l (Fig. 3)
T1 construct: from tissue; host or cells: human uraemic plasma
T1 sequence (P02768 25-609): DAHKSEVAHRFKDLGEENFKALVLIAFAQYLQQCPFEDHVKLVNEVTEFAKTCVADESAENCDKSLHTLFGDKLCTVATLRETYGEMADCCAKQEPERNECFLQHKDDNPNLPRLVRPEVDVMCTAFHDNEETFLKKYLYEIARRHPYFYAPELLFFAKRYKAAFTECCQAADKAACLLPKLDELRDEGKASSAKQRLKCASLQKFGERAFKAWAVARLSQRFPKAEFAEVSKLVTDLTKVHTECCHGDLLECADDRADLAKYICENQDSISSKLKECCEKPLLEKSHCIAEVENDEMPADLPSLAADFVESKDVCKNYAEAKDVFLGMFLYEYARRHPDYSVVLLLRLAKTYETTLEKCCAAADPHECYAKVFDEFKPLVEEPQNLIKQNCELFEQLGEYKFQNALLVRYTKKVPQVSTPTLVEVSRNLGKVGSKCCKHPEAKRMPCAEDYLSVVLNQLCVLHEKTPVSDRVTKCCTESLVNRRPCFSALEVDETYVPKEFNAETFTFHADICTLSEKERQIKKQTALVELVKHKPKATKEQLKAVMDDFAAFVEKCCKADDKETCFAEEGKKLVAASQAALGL

[2] = target: T1, albumin; test: Static RED assay of PBUT displacement by binding competitors in uraemic plasma; details: for displacement of IS and PCS: RED assay (Fig. 1); for increase of free fraction of IS / increase of free fraction of PCS: displacer 1 mmol/l, RED 4 h 37 °C, compared to PBS
Procedure: We evaluated the albumin binding of uraemic toxins and their interaction with displacers in human uraemic plasma utilizing the RED device. Candidate displacers were mixed with uraemic plasma before incubation. The test mixture (300 μl) was added into the sample chamber, while the buffer chamber was filled with 500 μl PBS. After 4 hours of incubation (37 °C, 250 rpm), samples were collected from both chambers for HPLC analysis. The concentration of all displacers and negative control (antipyrine) in the incubations was 1 mmol/l. For furosemide, incubations at final concentration of 0.18 mmol/l were also included since this is the clinically relevant concentration for intravenous administration.
(§1) Blood samples were centrifuged at 13200 rpm for 3 mins. The plasma layer was collected and stored at −80 °C. Plasma samples (50 μl) were precipitated with 100 μl of ice-cold acetonitrile to precipitate the proteins. The samples were then vortexed thoroughly and centrifuged at 3000 rpm for 10 minutes. The supernatant, containing the uraemic toxins and displacers, was collected and further diluted 1:1 with deionized water before HPLC injection. The dialysate samples (100 μl) were diluted with 100 μl water before HPLC injection.
(§2) Measurements were calibrated with standard curves for all analytes, and were linear over the concentration range of the experiments. Measurements were performed on an Agilent 1100 system (Agilent Technologies, Dover, DE, USA) equipped with a C18 column (Kinetex 5 μm C18 100 Å, LC Column 150 × 4.6 mm, Phenomenex, Torrance, CA, USA). Mobile phase A: ammonium formate, 20 mmol/l, pH 4. Mobile phase B: acetonitrile. The gradient profile for mobile phase B was: 0–2 min, 15%; 11–14 min, 100%; 14.2–16 min, 15%; and the flow rate gradient was 0–11.2 min, 0.4 ml/min; 11.2–16 min 0.5 ml/min. […] HIPA and furosemide were detected at 230 nm with the UV-Vis detector. The injection volume was 5 μl.
For PBUT displacement in RED assays, Dunnett’s post-analysis comparisons to PBS were performed by one way ANOVA using GraphPad Prism (GraphPad Software, La Jolla, CA).

[3] = target: T1, albumin; test: Single-pass haemodialysis model with uraemic human whole blood and pre-dialyzer displacer infusion
Procedure: All experiments were carried out in triplicate.
as §1
as §2, with “acetonitrile.” for “acetonitrile. The gradient profile for mobile phase B was: 0–2 min, 15%; 11–14 min, 100%; 14.2–16 min, 15%; and the flow rate gradient was 0–11.2 min, 0.4 ml/min; 11.2–16 min 0.5 ml/min.”

[4] = parameters: method as in PMID 973966, PMID 3514052; details: cited from earlier work
[5] = intervention phase vs baseline phase, P < 0.0001

## NS(=O)(=O)c1cc(C(=O)O)c(NCc2ccco2)cc1Cl [furosemide]
[1]
  effect on IS displacement by ibuprofen when given simultaneously: boost the IS displacement effect of ibuprofen
[2]; furosemide alone at 0.18 mmol/l (Fig. 1)
  increase in the free fraction of IS: did not induce a significant increase
[2]; uraemic plasma
  displacement of IS and PCS: limited displacement effect
  increase of free fraction of IS: ~1.3 fold
  increase of free fraction of PCS: ~1.3 fold
[2]; uraemic plasma, RED assay (Fig. 2)
  displacement of HIPA: significant displacement

## N[C@@H](Cc1c[nH]c2ccccc12)C(=O)O [tryptophan, L-Tryptophan]
[3]; human whole blood, HIPA 400 μmol/l (1 mmol/l with tryptophan) (Fig. 6)
  HIPA removal: virtually unaffected
[3]; human whole blood, IAA 15 μmol/l, Qb 12.5 ml/min, Qd 25 ml/min, mean ± SEM, N = 3
  fractional removal of IAA during displacer infusion: 27.1 ± 0.3%
[3]; human whole blood, IS 150 μmol/l, Qb 12.5 ml/min, Qd 25 ml/min, mean ± SEM, N = 3
  fractional removal of IS during displacer infusion: 10.5 ± 0.1%
[3]; [5]
  increase of IAA removal: 1.3 fold
  increase of IS removal: 1.4 fold
[2]; uraemic plasma
  displacement of IS and PCS: more efficiently than HIPA
  increase of free fraction of IS: ~2 fold
  increase of free fraction of PCS: ~2 fold

## Cc1cc(=O)n(-c2ccccc2)n1C [antipyrine]
[4]
  protein binding capability: lacks protein binding capability
[2]; uraemic plasma, negative control 1 mmol/l (Figs 1 and 2)
  change in uraemic toxin protein binding: did not lead to a significant change
